These results are taken from patent US20260226068A1, “IMIDAZOTRIAZINE IL-17A MODULATORS AND USES THEREOF” (DICE ALPHA, INC., priority 2023, published 2026).

One experiment concerns the target T1, IL-17A/F (Homo sapiens, UniProt Q16552+Q96PD4).
T1 construct: purchased R&D Systems
T1 sequence (Q16552 24-155): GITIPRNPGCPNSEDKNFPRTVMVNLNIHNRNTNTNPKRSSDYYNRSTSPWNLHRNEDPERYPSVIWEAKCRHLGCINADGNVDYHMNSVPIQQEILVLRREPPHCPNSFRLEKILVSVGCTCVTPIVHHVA
T1 sequence (Q96PD4 31-163): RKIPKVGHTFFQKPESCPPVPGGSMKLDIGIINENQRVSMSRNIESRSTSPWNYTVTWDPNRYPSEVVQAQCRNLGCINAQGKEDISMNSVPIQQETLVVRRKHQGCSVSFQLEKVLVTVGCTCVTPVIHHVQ
Put plainly: IL-17A/F HEK-Blue cell assay (SEAP reporter). Format: cell-based. As to conditions: HEK-Blue IL-17A reporter cells, IL17A/F 5 ng/mL, 20 hours, SEAP read at A630; read-out: HEK-Blue IL17AF (IC50 for IL-17A/F inhibition).

A further experiment deals with T2, IL-17A/A (Homo sapiens, UniProt Q16552).
T2 construct: purchased Genscript Z03228
T2 sequence (Q16552 24-155): T1 sequence (Q16552 24-155)
The experiment in a line: IL-17A/A HEK-Blue cell assay (SEAP reporter). Type of experiment: cell-based. As to conditions: HEK-Blue IL-17A reporter cells, IL17A/A 5 ng/mL, 20 hours, SEAP read at A630; read-out: HEK-Blue IL17AA (IC50 for IL-17A/A inhibition).

Some results are limits rather than exact numbers.

Turning to `CCn1nccc1C(=O)N[C@H](c1cn2nc(C[C@H]3C[C@@H](C(F)(F)F)CNC3=O)c(C3CCOCC3)nc2n1)[C@H]1C[C@H]2C[C@H]2C1` [Compound 292, N—((S)-((1R,3r,5S)-bicyclo[3.1.0]hexan-3-yl)(2-(((3R,5R)-2-oxo-5-(trifluoromethyl)piperidin-3-yl)methyl)-3-(tetrahydro-2H-pyran-4-yl)imidazo[1,2-b][1,2,4]triazin-6-yl)methyl)-1-ethyl-1H-pyrazole-5-carboxamide], the IC50 at IL-17A/F is above 1000 nM; on IL-17A/A it was below 100 nM.

Take `CCc1nc2nc([C@@H](NC(=O)c3ccnn3C)C3CCC(F)(F)CC3)cn2nc1C[C@H]1C[C@@H](C(F)(F)F)CNC1=O` [Compound 295, N—((S)-(4,4-difluorocyclohexyl)(3-ethyl-2-(((3R,5R)-2-oxo-5-(trifluoromethyl)piperidin-3-yl)methyl)imidazo[1,2-b][1,2,4]triazin-6-yl)methyl)-1-methyl-1H-pyrazole-5-carboxamide]: the IC50 on IL-17A/F was above 1000 nM; at IL-17A/A, below 100 nM.

As to `CCn1nccc1C(=O)N[C@H](c1cn2nc(C[C@H]3C[C@@H](C(F)(F)F)CNC3=O)c(N3CCN(C)CC3)nc2n1)C1CCC(F)(F)CC1` [Compound 296, N—((S)-(4,4-difluorocyclohexyl)(3-(4-methylpiperazin-1-yl)-2-(((3R,5R)-2-oxo-5-(trifluoromethyl)piperidin-3-yl)methyl)imidazo[1,2-b][1,2,4]triazin-6-yl)methyl)-1-ethyl-1H-pyrazole-5-carboxamide], the IC50 at IL-17A/F is 100 to 1000 nM; at IL-17A/A it was below 100 nM.

As for `CCn1nccc1C(=O)N[C@H](c1cn2nc(C[C@H]3CC(F)(F)CNC3=O)c(C3CCOCC3)nc2n1)[C@H]1CC[C@H](C)CC1` [Compound 297], the results for the IC50 on IL-17A/F and at IL-17A/A were 100 to 1000 nM and below 100 nM, respectively.

For the molecule `CCn1nccc1C(=O)N[C@H](c1cn2nc(C[C@H]3C[C@@H](C(F)(F)F)CNC3=O)c(N3CCN(C)[C@H](C)C3)nc2n1)C1CCC(F)(F)CC1` [Compound 298, N—((S)-(4,4-difluorocyclohexyl)(3-((R)-3,4-dimethylpiperazin-1-yl)-2-(((3R,5R)-2-oxo-5-(trifluoromethyl)piperidin-3-yl)methyl)imidazo[1,2-b][1,2,4]triazin-6-yl)methyl)-1-ethyl-1H-pyrazole-5-carboxamide], the IC50 on IL-17A/F and on IL-17A/A was below 100 nM in each case.

Regarding `CCn1nccc1C(=O)N[C@H](c1cn2nc(C[C@H]3C[C@@H](C(F)(F)F)CNC3=O)c(C3CCNCC3)nc2n1)C1CCC(F)(F)CC1` [Compound 299, N—((S)-(4,4-difluorocyclohexyl)(2-(((3R,5R)-2-oxo-5-(trifluoromethyl)piperidin-3-yl)methyl)-3-(piperidin-4-yl)imidazo[1,2-b][1,2,4]triazin-6-yl)methyl)-1-ethyl-1H-pyrazole-5-carboxamide], the figures for the IC50 on IL-17A/F and on IL-17A/A were above 1000 nM and 100 to 1000 nM, respectively.

As for `CCn1nccc1C(=O)N[C@H](c1cn2nc(C[C@H]3C[C@@H](C(F)(F)F)CNC3=O)c(C3CCN(C)CC3)nc2n1)C1CCC(F)(F)CC1` [Compound 300, N—((S)-(4,4-difluorocyclohexyl)(3-(1-methylpiperidin-4-yl)-2-(((3R,5R)-2-oxo-5-(trifluoromethyl)piperidin-3-yl)methyl)imidazo[1,2-b][1,2,4]triazin-6-yl)methyl)-1-ethyl-1H-pyrazole-5-carboxamide], the IC50 on IL-17A/F was above 1000 nM; on IL-17A/A, 100 to 1000 nM.

In the case of `CCn1nccc1C(=O)N[C@H](c1cn2nc(C[C@H]3C[C@@H](C(F)(F)F)CNC3=O)c(C3CNC3)nc2n1)C1CCC(F)(F)CC1` [Compound 301, N—((S)-(3-(azetidin-3-yl)-2-(((3R,5R)-2-oxo-5-(trifluoromethyl)piperidin-3-yl)methyl)imidazo[1,2-b][1,2,4]triazin-6-yl)(4,4-difluorocyclohexyl)methyl)-1-ethyl-1H-pyrazole-5-carboxamide], the values for the IC50 on IL-17A/F and at IL-17A/A were above 1000 nM and below 100 nM, respectively.

For the molecule `CCn1nccc1C(=O)N[C@H](c1cn2nc(C[C@H]3C[C@@H](C(F)(F)F)CNC3=O)c(C3CN(C)C3)nc2n1)C1CCC(F)(F)CC1` [Compound 302, N—((S)-(4,4-difluorocyclohexyl)(3-(1-methylazetidin-3-yl)-2-(((3R,5R)-2-oxo-5-(trifluoromethyl)piperidin-3-yl)methyl)imidazo[1,2-b][1,2,4]triazin-6-yl)methyl)-1-ethyl-1H-pyrazole-5-carboxamide], the figures for the IC50 at IL-17A/F and at IL-17A/A were above 1000 nM and below 100 nM, respectively.

In the case of `CCn1nccc1C(=O)N[C@H](c1cn2nc(C[C@H]3C[C@@H](C)CNC3=O)c(C3CCOCC3)nc2n1)C1CCC(F)(F)CC1` [Compound 303], the IC50 at IL-17A/F is above 1000 nM; on IL-17A/A, below 100 nM.

As for `CCn1nccc1C(=O)N[C@H](c1cn2nc(C[C@@H]3C[C@@H](C)CNC3=O)c(C3CCOCC3)nc2n1)C1CCC(F)(F)CC1` [Compound 304], the IC50 was above 1000 nM on IL-17A/F and below 100 nM at IL-17A/A.

Consider `CCn1nccc1C(=O)N[C@H](c1cn2nc(C[C@H]3C[C@H](C(F)(F)F)CNC3=O)c(N3CCO[C@H](C)C3)nc2n1)[C@@H]1CCCC(F)(F)C1` [Compound 305, N—((S)—((R)-3,3-difluorocyclohexyl)(3-((R)-2-methylmorpholino)-2-(((3R,5S)-2-oxo-5-(trifluoromethyl)piperidin-3-yl)methyl)imidazo[1,2-b][1,2,4]triazin-6-yl)methyl)-1-ethyl-1H-pyrazole-5-carboxamide], for which the IC50 at IL-17A/F and at IL-17A/A was below 100 nM throughout.

With `CCn1nccc1C(=O)N[C@H](c1cn2nc(C[C@H]3C[C@H](C(F)(F)F)CNC3=O)c(N3CCO[C@@H](C)C3)nc2n1)[C@@H]1CCCC(F)(F)C1` [Compound 306, N—((S)—((R)-3,3-difluorocyclohexyl)(3-((S)-2-methylmorpholino)-2-(((3R,5S)-2-oxo-5-(trifluoromethyl)piperidin-3-yl)methyl)imidazo[1,2-b][1,2,4]triazin-6-yl)methyl)-1-ethyl-1H-pyrazole-5-carboxamide], the IC50 at IL-17A/F is 100 to 1000 nM; on IL-17A/A, below 100 nM.

Regarding `C[C@@H]1CN(c2nc3nc([C@@H](NC(=O)c4ccnn4C)[C@@H]4CCCC(F)(F)C4)cn3nc2C[C@H]2C[C@@H](C(F)(F)F)CNC2=O)CCO1` [Compound 307, N—((S)—((R)-3,3-difluorocyclohexyl)(3-((R)-2-methylmorpholino)-2-(((3R,5R)-2-oxo-5-(trifluoromethyl)piperidin-3-yl)methyl)imidazo[1,2-b][1,2,4]triazin-6-yl)methyl)-1-methyl-1H-pyrazole-5-carboxamide], the IC50 at IL-17A/F and at IL-17A/A was below 100 nM throughout.

In the case of `C[C@H]1CN(c2nc3nc([C@@H](NC(=O)c4ccnn4C)[C@@H]4CCCC(F)(F)C4)cn3nc2C[C@H]2C[C@@H](C(F)(F)F)CNC2=O)CCO1` [Compound 308, N—((S)—((R)-3,3-difluorocyclohexyl)(3-((S)-2-methylmorpholino)-2-(((3R,5R)-2-oxo-5-(trifluoromethyl)piperidin-3-yl)methyl)imidazo[1,2-b][1,2,4]triazin-6-yl)methyl)-1-methyl-1H-pyrazole-5-carboxamide], the IC50 on IL-17A/F is 100 to 1000 nM; at IL-17A/A it was below 100 nM.

As to `C[C@@H]1CN(c2nc3nc([C@@H](NC(=O)c4ccnn4C)[C@@H]4CCCC(F)(F)C4)cn3nc2C[C@H]2C[C@H](C(F)(F)F)CNC2=O)CCO1` [Compound 309, N—((S)—((R)-3,3-difluorocyclohexyl)(3-((R)-2-methylmorpholino)-2-(((3R,5S)-2-oxo-5-(trifluoromethyl)piperidin-3-yl)methyl)imidazo[1,2-b][1,2,4]triazin-6-yl)methyl)-1-methyl-1H-pyrazole-5-carboxamide], the IC50 is 100 to 1000 nM at IL-17A/F and below 100 nM on IL-17A/A.

In the case of `C[C@H]1CN(c2nc3nc([C@@H](NC(=O)c4ccnn4C)[C@@H]4CCCC(F)(F)C4)cn3nc2C[C@H]2C[C@H](C(F)(F)F)CNC2=O)CCO1` [Compound 310, N—((S)—((R)-3,3-difluorocyclohexyl)(3-((S)-2-methylmorpholino)-2-(((3R,5S)-2-oxo-5-(trifluoromethyl)piperidin-3-yl)methyl)imidazo[1,2-b][1,2,4]triazin-6-yl)methyl)-1-methyl-1H-pyrazole-5-carboxamide], the IC50 on IL-17A/F is 100 to 1000 nM; on IL-17A/A it was below 100 nM.

For `Cc1nonc1C(=O)N[C@H](c1cn2nc(C[C@H]3C[C@@H](C(F)(F)F)CNC3=O)c(N3CCN(C)CC3)nc2n1)C1CCC(F)(F)CC1` [Compound 311, N—((S)-(4,4-difluorocyclohexyl)(3-(4-methylpiperazin-1-yl)-2-(((3R,5R)-2-oxo-5-(trifluoromethyl)piperidin-3-yl)methyl)imidazo[1,2-b][1,2,4]triazin-6-yl)methyl)-4-methyl-1,2,5-oxadiazole-3-carboxamide], the IC50 at IL-17A/F is above 1000 nM; at IL-17A/A, below 100 nM.

Consider `CCc1nonc1C(=O)N[C@H](c1cn2nc(C[C@H]3C[C@@H](C(F)(F)F)CNC3=O)c(N3CCN(C)CC3)nc2n1)C1CCC(F)(F)CC1` [Compound 312, N—((S)-(4,4-difluorocyclohexyl)(3-(4-methylpiperazin-1-yl)-2-(((3R,5R)-2-oxo-5-(trifluoromethyl)piperidin-3-yl)methyl)imidazo[1,2-b][1,2,4]triazin-6-yl)methyl)-4-ethyl-1,2,5-oxadiazole-3-carboxamide], for which the IC50 on IL-17A/F was above 1000 nM; at IL-17A/A, below 100 nM.
